Laboratory results from patent US11306067B2, “Diphenyl substituted thiophene-2-amide derivatives and pharmaceutical compositions thereof useful as antimicrobial” (DENOVAMED INC., priority 2018, dated 2022).

Key:
E. coli ATCC 25922 [1] = experiment: Combination MIC of colistin for antibiotic adjuvant potential; assay type: cell-based; set-up: unit not given beside the values; details: colistin alone
Protocol: (§1) The MIC of colistin was determined against the bacteria specified below, by itself or in the presence of 1 ug/ml or 10 ug/ml of a compound disclosed herein (nd=not determined): […]

[2] = test system: Pseudomonas aeurginosa ATCC 27853; experiment: as above; assay type: cell-based; set-up: unit not given beside the values; details: colistin alone; Pseudomonas ATCC 27853
Protocol: as §1

[3] = test system: Acinetobacter Baumannii ATCC 19606; experiment: as above; assay type: cell-based; set-up: unit not given beside the values; details: colistin alone; Acinetobacter ATCC 19606
Protocol: as §1

[4] = test system: Klebsiella pneumoniae (Colistin Resistant) MMX8390; experiment: as above; assay type: cell-based; details: colistin alone; K. pneumoniae colistin resistant MMX8390
Protocol: as §1

[5] = test system: Klebsiella pneumoniae (Colistin Sensitive) MMX214; experiment: as above; assay type: cell-based; details: colistin alone; K. pneumoniae colistin sensitive MMX214
Protocol: as §1

E. coli ATCC 25922 [6] = test system: E. coli ATCC 25922; set-up: unit not given beside the values; details: colistin alone, unexplained range under the value, probably reference range; cited from earlier work

## colistin
E. coli ATCC 25922 [1]
  MIC of colistin: 0.25
[2]
  MIC of colistin: 0.25
[3]
  MIC of colistin: 0.25
[4]
  MIC of colistin: 16
[5]
  MIC of colistin: 2
E. coli ATCC 25922 [6]
  MIC of colistin, range in parentheses: (0.25-2)
